From PubChem BioAssay AID248 (DTP/NCI, 2004)
Inconclusive results and toxic doses are left out. No stated cut-off is given here; in the data, active means T/C of 150% or more; inactive means T/C below 125%.

Tested on: L1210 leukemia ip in BDF1 mice, survival T/C
Assay: NCI In Vivo Anticancer Drug Screen. Data for tumor model L1210 Leukemia (intraperitoneal) in B6D2F1 (BDF1) mice
Conditions: endpoint: mean survival time, higher = longer survival
Outline: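 Ratio derived from survival: compound-dosed mice over vehicle-dosed mice, all bearing a transplantable tumor.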

[1] = dose: 100.0 mg/kg/injection, schedule: Q01DX009 (ip), vehicle: saline
[2] = dose: 200.0 mg/kg/injection, schedule: Q01DX009 (ip), vehicle: saline
[3] = dose: 100.0 mg/kg/injection, schedule: Q01DX001 (ip), vehicle: saline
[4] = dose: 200.0 mg/kg/injection, schedule: Q01DX001 (ip), vehicle: saline
[5] = dose: 400.0 mg/kg/injection, schedule: Q01DX001 (ip), vehicle: saline
[6] = dose: 100.0 mg/kg/injection, schedule: Q01DX009 (ip), vehicle: Klucel (hydroxypropylcellulose) (HPC)
[7] = dose: 200.0 mg/kg/injection, schedule: Q01DX009 (ip), vehicle: Klucel (hydroxypropylcellulose) (HPC)
[8] = dose: 400.0 mg/kg/injection, schedule: Q01DX009 (ip), vehicle: Klucel (hydroxypropylcellulose) (HPC)
[9] = dose: 100.0 mg/kg/injection, schedule: Q01DX001 (ip), vehicle: Klucel (hydroxypropylcellulose) (HPC)
[10] = dose: 200.0 mg/kg/injection, schedule: Q01DX001 (ip), vehicle: Klucel (hydroxypropylcellulose) (HPC)
[11] = dose: 400.0 mg/kg/injection, schedule: Q01DX001 (ip), vehicle: Klucel (hydroxypropylcellulose) (HPC)
[12] = dose: 100.0 mg/kg/injection, schedule: Q04DX003 (ip), vehicle: saline with Tween-80
[13] = dose: 200.0 mg/kg/injection, schedule: Q04DX003 (ip), vehicle: saline with Tween-80
[14] = dose: 400.0 mg/kg/injection, schedule: Q04DX003 (ip), vehicle: saline with Tween-80
[15] = dose: 100.0 mg/kg/injection, schedule: Q01DX009 (ip), vehicle: saline with Tween-80
[16] = dose: 200.0 mg/kg/injection, schedule: Q01DX009 (ip), vehicle: saline with Tween-80
[17] = dose: 100.0 mg/kg/injection, schedule: Q04DX002 (ip), vehicle: saline
[18] = dose: 200.0 mg/kg/injection, schedule: Q04DX002 (ip), vehicle: saline
[19] = dose: 400.0 mg/kg/injection, schedule: Q04DX002 (ip), vehicle: saline
[20] = dose: 12.5 mg/kg/injection, schedule: Q04DX003 (ip), vehicle: saline with Tween-80
[21] = dose: 25.0 mg/kg/injection, schedule: Q04DX003 (ip), vehicle: saline with Tween-80

Measured: T/C

CS(=O)(=O)OCCN1CCC2(CC1)SSC1(CCN(CCOS(C)(=O)=O)CC1)S2
inactive: dose: 6.25 mg/kg/injection, schedule: Q01DX009 (ip), vehicle: saline 98 % of control | dose: 12.5 mg/kg/injection, schedule: Q01DX009 (ip), vehicle: saline 101 % of control | dose: 12.5 mg/kg/injection, schedule: Q04DX003 (ip), vehicle: saline 108 % of control | dose: 25.0 mg/kg/injection, schedule: Q04DX003 (ip), vehicle: saline 95 % of control

C=C(NC(=O)COc1ccccc1)C(=O)O
inactive: [1] 103 % of control | dose: 100.0 mg/kg/injection, schedule: Q04DX003 (ip), vehicle: saline 116 % of control | [2] 90 % of control | dose: 200.0 mg/kg/injection, schedule: Q04DX003 (ip), vehicle: saline 97 % of control | dose: 400.0 mg/kg/injection, schedule: Q04DX003 (ip), vehicle: saline 100 % of control

CC(CCc1ccc(OC(=O)c2ccccc2)cc1)OC(=O)c1ccccc1 (stereo not drawn)
inactive: dose: 50.0 mg/kg/injection, schedule: Q01DX001 (ip), vehicle: saline 101 % of control | [3] 95 % of control | [4] 98 % of control | [5] 95 % of control

CC(C)CC(NS(=O)(=O)Cc1ccccc1)C(=O)NN (stereo not drawn)
inactive: dose: 100.0 mg/kg/injection, schedule: Q01DX001 (ip), vehicle: other 98 % of control | dose: 200.0 mg/kg/injection, schedule: Q01DX001 (ip), vehicle: other 96 % of control | dose: 400.0 mg/kg/injection, schedule: Q01DX001 (ip), vehicle: other 110 % of control

COc1ccccc1NS(=O)(=O)c1ccc(Cl)cc1
inactive: [6] 103 % of control | [7] 112 % of control | [8] 103 % of control

N#Cc1cccc(NC(=O)COc2cccc(Cl)c2)c1
inactive: [9] 94 % of control | [10] 87 % of control | [11] 90 % of control

Cc1cc(C)[nH]c(=O)c1
inactive: [12] 109 % of control | [13] 102 % of control | [14] 98 % of control

Cc1cc(=O)[nH]c(=O)n1C1OC(CO)C(O)C1O (stereo not drawn)
inactive: [3] 108 % of control | [4] 102 % of control | [5] 98 % of control

CCC/C(=N\NC(=O)c1ccccc1OC)c1ccccc1
inactive: dose: 50.0 mg/kg/injection, schedule: Q01DX009 (ip), vehicle: saline with Tween-80 105 % of control | [15] 97 % of control | [16] 105 % of control

CC(=O)C1CC[C@@]2(C)C(CC[C@H]3[C@@H]4CCC[C@H]([C@H](C)O)[C@@]4(C)CC[C@@H]32)C1 (stereo partly drawn)
inactive: dose: 100.0 mg/kg/injection, schedule: Q04DX003 (ip), vehicle: steriod suspending solution 106 % of control | dose: 200.0 mg/kg/injection, schedule: Q04DX003 (ip), vehicle: steriod suspending solution 95 % of control | dose: 400.0 mg/kg/injection, schedule: Q04DX003 (ip), vehicle: steriod suspending solution 119 % of control

COc1cc(C)ccc1C(=O)CCCC(=O)O
inactive: [9] 106 % of control | dose: 100.0 mg/kg/injection, schedule: Q04DX003 (ip), vehicle: Klucel (hydroxypropylcellulose) (HPC) 105 % of control | [10] 98 % of control | [7] 97 % of control | dose: 200.0 mg/kg/injection, schedule: Q04DX003 (ip), vehicle: Klucel (hydroxypropylcellulose) (HPC) 102 % of control | [11] 98 % of control | [8] 98 % of control | dose: 400.0 mg/kg/injection, schedule: Q04DX003 (ip), vehicle: Klucel (hydroxypropylcellulose) (HPC) 103 % of control

CCCCC#CC(=O)OCCCC
inactive: [17] 94 % of control | [18] 97 % of control | [19] 102 % of control

O=C(O)/C(=C\c1[nH]c(=O)[nH]c(=O)c1Br)NC(=O)c1ccccc1
inactive: [12] 104 % of control | [13] 103 % of control | [14] 101 % of control

CCCCCCCCCCCCCCCCCCNC(=O)Nc1cc(C)ccc1C
inactive: dose: 100.0 mg/kg/injection, schedule: Q01DX009 (ip), vehicle: gum acacia 87 % of control | dose: 100.0 mg/kg/injection, schedule: Q04DX003 (ip), vehicle: gum acacia 92 % of control | dose: 200.0 mg/kg/injection, schedule: Q01DX009 (ip), vehicle: gum acacia 96 % of control | dose: 200.0 mg/kg/injection, schedule: Q04DX003 (ip), vehicle: gum acacia 92 % of control | dose: 400.0 mg/kg/injection, schedule: Q01DX009 (ip), vehicle: gum acacia 92 % of control | dose: 400.0 mg/kg/injection, schedule: Q04DX003 (ip), vehicle: gum acacia 87 % of control

COC(=O)c1cc(C)n(C)c(=O)c1CNS(=O)(=O)c1ccc(C)cc1
inactive: [15] 99 % of control | [12] 97 % of control | [16] 100 % of control | [13] 105 % of control | dose: 400.0 mg/kg/injection, schedule: Q01DX009 (ip), vehicle: saline with Tween-80 99 % of control | [14] 108 % of control

COc1ccc(/C=C(\C(=O)O)c2cccc3ccccc23)cc1
inactive: [6] 91 % of control | dose: 100.0 mg/kg/injection, schedule: Q04DX002 (ip), vehicle: Klucel (hydroxypropylcellulose) (HPC) 100 % of control | [7] 107 % of control | dose: 200.0 mg/kg/injection, schedule: Q04DX002 (ip), vehicle: Klucel (hydroxypropylcellulose) (HPC) 86 % of control | dose: 400.0 mg/kg/injection, schedule: Q04DX002 (ip), vehicle: Klucel (hydroxypropylcellulose) (HPC) 104 % of control

Cc1ccc(NC(=O)NC(C)C)c(C)c1
inactive: [20] 96 % of control | [21] 98 % of control | dose: 50.0 mg/kg/injection, schedule: Q04DX003 (ip), vehicle: saline with Tween-80 104 % of control | [14] 90 % of control

CN1C2CCC1CNC2
inactive: [1] 101 % of control | [2] 96 % of control | dose: 400.0 mg/kg/injection, schedule: Q01DX009 (ip), vehicle: saline 90 % of control

OCC[N+]12CN3CN(CN(C3)C1)C2
inactive: [17] 113 % of control | [18] 106 % of control | [19] 106 % of control

CCOC(=N)c1ccc(P(=O)(O)O)cc1
inactive: dose: 75.0 mg/kg/injection, schedule: Q01DX001 (ip), vehicle: saline 97 % of control | dose: 150.0 mg/kg/injection, schedule: Q01DX001 (ip), vehicle: saline 96 % of control | dose: 300.0 mg/kg/injection, schedule: Q01DX001 (ip), vehicle: saline 102 % of control

CCOC(=O)NCC(C)(CCN1CCCCC1)c1cccc2ccccc12 (stereo not drawn)
inactive: dose: 6.25 mg/kg/injection, schedule: Q04DX003 (ip), vehicle: saline with Tween-80 104 % of control | [20] 98 % of control | [21] 97 % of control

CCCC[P+](CCCC)(CCCC)CC(=O)OCC
inactive: dose: 15.0 mg/kg/injection, schedule: Q01DX001 (ip), vehicle: carboxymethylcellulose (CMC) 86 % of control | dose: 60.0 mg/kg/injection, schedule: Q01DX001 (ip), vehicle: carboxymethylcellulose (CMC) 87 % of control

CC(CC(C)(C)C)C(=O)CCC(C)(C)C (stereo not drawn)
inactive: dose: 100.0 mg/kg/injection, schedule: Q01DX001 (ip), vehicle: saline with Tween-80 103 % of control | dose: 200.0 mg/kg/injection, schedule: Q01DX001 (ip), vehicle: saline with Tween-80 95 % of control | dose: 400.0 mg/kg/injection, schedule: Q01DX001 (ip), vehicle: saline with Tween-80 101 % of control

c1ccc(-c2nnc3ccccn23)cc1
inactive: [9] 102 % of control | [10] 106 % of control
